Laboratory results: patent publication US8168669B2, “Therapeutic agent for inflammatory bowel disease and TNF-α production inhibitor” (Ajinomoto Co., Inc., priority 2005, dated 2012)

Assays:
Format in all cases: in vivo, mouse
[1] = test system: colitis in Scid mice injected with cells of IL-10 deficient Balb/c mice; assay: Therapeutic effect on inflammatory bowel disease: colon weight in cell-transfer colitis mice fed experimental diet; parameters: Colon weight Mean: unit not given here; settings: three weeks after cell transfer
Method: Balb/c background IL-10 deficient mice were established from C57BL/6 background IL-10 deficient mice by back-crossing for seventh generations. […] Spleen, mesenteric lymph nodes and sacral lymph nodes were collected from the IL-10 gene-deficient Balb/c mice (male) which had developed the colitis detected by observing the diarrhea symptoms. After preparing single cell suspensions, the cells at about 1×10^7 were injected intraperitoneally to Scid mice which were immunodeficiency mice (hereinafter the Scid mouse injected IP was referred to as an “experiment mouse”). Subsequently, a chow was changed to an experimental diet. At a time point three weeks after cell transfer, the mice were killed, the colon was collected, the intestinal contents were washed out, and its weight was measured. A percentage of inhibiting a weight gain of the colon was calculated by the following formula. Percentage of inhibiting a weight gain of colon=[1−(Colon weight in target group−Colon weight in cell transfer group)/(Colon weight in standard chow group−Colon weight in cell transfer group)]×100(%)
An amino acid mixture A is composed of the following amino acids (% by weight is represented in terms of free amino acid).

TNF-α mRNA = assay: Inhibitory effect on TNF-α production: quantitative RT-PCR of colon TNF-α mRNA; settings: colon after three weeks
Method: (§1) The experimental diet obtained by mixing the amino acids shown in Table 6 with the standard chow was given to the experiment mice, and after three weeks, the colon was removed. A colon sample was homogenized with 500 μL of Isogen (Nippon Gene). The homogenate mixed with 100 μL, of chloroform was centrifuged at 15,000 rpm at 4° C. and an aqueous layer was collected. An equivalent amount of 2-propanol was added thereto, which was then centrifuged at 15,000 rpm at 4° C. A resulting pellet was washed with 70% (v/v) ethanol, dried in air and dissolved in water treated with DEPC.
All reagents used were from Invitrogen. 0.5 μg Of total RNA and 0.5 μg of oligo (dT) were dissolved in 12 μL of DEPC-treated water, heated at 70° C. for 10 minutes, and cooled on ice for one minute. Subsequently, 4 μL of 5×1st strand buffer, 1 μL of 10 mM dNTP mix and 2 μL of 100 mM DTT were added thereto. The mixture was reacted at 42° C. for 5 minutes. 1 μL (200 U) of SuperScriptII was added, and the mixture was reacted at 42° C. for 50 minutes and 70° C. for 15 minutes.
(§2) A gene expression assay based on PCR was performed using SYBR Green PCR Master Mix (Applied Biosystems) and ABI PRISM 7700 System. SYBR Green PCR Master Mix comprises SYBR Green and heat resistant DNA polymerase, and detects fluorescence generated by specifically binding SYBR Green to a double strand DNA amplified by PCR using ABI PRISM 7700 System. Gene expression amounts of the samples can be compared by comparing the numbers of PCR cycles at which a significant fluorescence signal is detected for the first time. The cDNA corresponding to 10 ng of total RNA was used as a template of the quantitative PCR, and n=2 or more per sample of measurements were performed. A forward primer and a reverse primer at each 7.5 pmol of each gene were added to 7.5 μL of SYBR Green PCR Master Mix (Applied Biosystems), and the total volume was made to be 15 μL with water. The PCR was performed by 40 cycles of the reaction at 95° C. for 10 seconds, 60° C. for 30 seconds and 72° C. for 30 seconds after reacting at 95° C. for 10 minutes. The sequences of the primers used for the quantitative RT-PCR are as follows.
An inhibitory rate of TNF-α mRNA expression was calculated from the following formula. Inhibitory rate of TNF-α mRNA expression=[1−Relative amount of TNF-α mRNA expression in target group−Relative amount of TNF-α mRNA expression in cell transfer group)/(Relative amount of TNF-α mRNA expression in standard chow group−Relative amount of TNF-α mRNA expression in cell transfer group)]×100(%)

Groα mRNA = assay: Quantitative RT-PCR of colon Groα mRNA; settings: 5% in standard chow, colon after three weeks
Method: as §1
(§3) All reagents used were from Invitrogen. […]
as §2, with “A forward primer and a reverse primer at each 7.5 pmol of each gene were added to 7.5 μL of SYBR Green PCR Master Mix (Applied Biosystems), and the total volume was made to be 15 μL with water. The PCR was performed by 40 cycles of the reaction at 95° C. for 10 seconds, 60° C. for 30 seconds and 72° C. for 30 seconds after reacting at 95° C. for 10 minutes.” left out, “follows. […]” for “follows.”

Reg3γ mRNA = assay: Quantitative RT-PCR of colon Reg3γ mRNA; settings: 5% in standard chow, colon after three weeks
Method: as §1, §3
as §2, with “A forward primer and a reverse primer at each 7.5 pmol of each gene were added to 7.5 μL of SYBR Green PCR Master Mix (Applied Biosystems), and the total volume was made to be 15 μL with water. The PCR was performed by 40 cycles of the reaction at 95° C. for 10 seconds, 60° C. for 30 seconds and 72° C. for 30 seconds after reacting at 95° C. for 10 minutes.” left out, “follows. […]” for “follows.”

[2] = Mus musculus, po, 504 h, 5% in standard chow, read-out: Rate of inhibiting weight gain of colon (%)

| Structure (SMILES) | Colon weight Mean ([1]; 5% in standard chow) | inhibition in vivo at 5 % [1, 2] [%] | Inhibitory rate of TNF-α mRNA expression (%) (TNF-α mRNA; 5% in standard chow) | other results |
| --- | --- | --- | --- | --- |
| NC(=O)CC[C@H](N)C(=O)O [Example 1, glutamine] | 530.5 | 22.5 | – | – |
| NCCCC[C@H](N)C(=O)O [Example 2, lysine] | 392.8 | 48.5 | – | – |
| N[C@@H](Cc1c[nH]cn1)C(=O)O [Example 3, histidine] | 429.0 | 37.8 | 54 | Inhibitory rate of Groα mRNA Expression (%) (Groα mRNA): 70%; Inhibitory rate of Reg3γ mRNA Expression (%) (Reg3γ mRNA): 84% |
| N[C@@H](CS)C(=O)O [Example 4, cysteine] | – | 42.1 | – | – |
| NCC(=O)O [Example 5, glycine] | 437.1 | – | – | Rate of inhibiting weight gain of colon (%) ([1]; 5% in standard chow): 37.4% |
| N[C@@H](Cc1c[nH]c2ccccc12)C(=O)O [Example 6, tryptophan] | – | 92.7 | 49 | Inhibitory rate of TNF-α mRNA expression (%) (TNF-α mRNA; 2% in standard chow): 33%; Colon weight Mean ([1]; 2% in standard chow): 425.6; inhibition in vivo at 2 % ([1]; Mus musculus, po, 504 h, 2% in standard chow, read-out: Rate of inhibiting weight gain of colon (%)): 41.9% |
| CSCC[C@H](N)C(=O)O [Example 7, methionine] | 307.7 | 73.1 | – | – |
| N[C@@H](Cc1ccccc1)C(=O)O [Example 12, phenylalanine] | 392.8 | 48.5 | 84 | – |
| C[C@@H](O)[C@H](N)C(=O)O [Example 13, threonine] | 468.2 | 28.8 | – | – |
